Experimental data reported in patent publication US20100029657A1, “Bridged, Bicyclic Heterocyclic or Spiro Bicyclic Heterocyclic Derivatives of Pyrazolo[1, 5-A]Pyrimidines, Methods for Preparation and Uses Thereof” (Wyeth, priority 2008, published 2010).
Like-named read-outs stand apart in the source and are kept apart here.

Biological target: T1, Flag/GST-tagged recombinant human B-Raf (Homo sapiens, UniProt P15056)
T1 construct: Flag; GST; made in house; host or cells: Sf9 insect cells (B-Raf); E. coli (MEK1-GST)
T1 sequence (P15056 whole entry): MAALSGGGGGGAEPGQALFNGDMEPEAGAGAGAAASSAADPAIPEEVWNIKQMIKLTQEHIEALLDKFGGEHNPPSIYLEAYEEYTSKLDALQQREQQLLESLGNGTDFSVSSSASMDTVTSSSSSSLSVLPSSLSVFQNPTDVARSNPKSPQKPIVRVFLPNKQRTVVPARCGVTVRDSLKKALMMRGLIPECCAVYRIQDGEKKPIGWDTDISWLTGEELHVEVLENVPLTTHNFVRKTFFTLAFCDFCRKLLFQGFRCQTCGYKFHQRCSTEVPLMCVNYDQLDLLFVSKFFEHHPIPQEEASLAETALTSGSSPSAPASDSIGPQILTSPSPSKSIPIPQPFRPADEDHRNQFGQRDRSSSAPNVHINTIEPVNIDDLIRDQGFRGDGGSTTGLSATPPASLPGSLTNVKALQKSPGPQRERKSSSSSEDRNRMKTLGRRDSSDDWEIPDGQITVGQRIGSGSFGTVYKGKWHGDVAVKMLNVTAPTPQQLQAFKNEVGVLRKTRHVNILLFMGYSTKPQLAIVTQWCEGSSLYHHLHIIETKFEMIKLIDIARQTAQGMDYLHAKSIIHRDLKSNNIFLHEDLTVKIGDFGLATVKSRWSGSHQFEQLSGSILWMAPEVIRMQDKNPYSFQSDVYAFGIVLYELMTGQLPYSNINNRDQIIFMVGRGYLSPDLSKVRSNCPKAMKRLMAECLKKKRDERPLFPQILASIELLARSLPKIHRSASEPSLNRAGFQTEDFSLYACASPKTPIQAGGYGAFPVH
Test: B-Raf kinase assay (phosphorylation of GST-MEK1, phospho-MEK1 antibody/Europium detection)
Assay type: biochemical
Settings: B-Raf IC50 Data for compounds of Formula A
Method: B-Raf1 Kinase Assay Procedure: B-Raf-1 is used to phosphorylate GST-MEK1.
• 1. Assay Dilution Buffer (ADB): 20 mM MOPS, pH 7.2, 25 mM β-glycerol phosphate, 5 mM EGTA, 1 mM sodium orthovanadate, 1 mM dithiothreitol, 0.01% Triton X-100. • 2. Magnesium/ATP Cocktail: ADB solution (minus Triton X-100) plus 200 μM cold ATP and 40 mM magnesium chloride. • 4. Active Kinase: Active B-Raf: Used at 0.2 nM per assay point. • 5. […] TBST—Tris (50 mM, pH 7.5), NaCl (150 mM), Tween-20 (0.05%) • 7. Anti-GST Ab (GE) • 8. Anti pMEK Ab (Upstate) • 9. Anti-rabbit Ab/Europium conjugate (Wallac).
B-Raf Assay Procedure: • 1. Added 25 μL of ADB containing B-Raf and Mek per assay (i.e. per well of a 96 well plate) • 2. Added 25 μL of 0.2 mM ATP and 40 mM magnesium chloride in Magnesuium/ATP Cocktail. • 3. Incubated for 45 minutes at RT with occasional shaking. • 4. Transferred this mixture to an anti-GST Ab coated 96 well plate (Nunc Immunosorb plates coated o/n with a-GST. Plate freshly washed 3×with TBS-T before use. • 5. Incubated o/n at […] in cold room. • 6. Washed 3× with TBST, ed Anti-Phospho MEK1 (1:1000, dilution depended upon lot) • 7. Incubated for 60 minutes at RT in a shaking incubator • 8. Washed 3× with TBST, add Anti-rabbit Ab/Europium conjugate (Wallac) (1:500, dilution depended upon lot) • 9. Incubated for 60 minutes at RT on a platform shaker. • 10. Washed plate 3× with TBS-T • 11. Added 100 μL of Wallac Delfia Enhancement Solution and agitated for 10 minutes. • 12. Read plates in Wallac Victor model Plate Reader. • 13.
The % inhibition was determined for each compound concentration.

Compound	IC50 (read-out: Mean IC50) [µM]	IC50 (Mean IC50 (uM)) [µM]
CCN1C2CCC1CC(c1ccnc3c(-c4ccc(N)cc4)c(-c4ccncc4)nn13)C2 (stereo not shown) [Example 22, 4-(7-(8-Ethyl-8-azabicyclo[3.2.1]octan-3-yl)-2-(pyridin-4-yl)pyrazolo[1,5-a]pyrimidin-3-yl)aniline]	> 1	–
CCN1C2CCC1CC(c1ccnc3c(-c4ccc(NC(N)=O)cc4)c(-c4ccncc4)nn13)C2 (stereo not shown) [Example 23, 1-(4-(7-(8-Ethyl-8-azabicyclo[3.2.1]octan-3-yl)-2-(pyridin-4-yl)pyrazolo[1,5-a]pyrimidin-3-yl)phenyl)urea]	> 1	–
CN1C2CCC1CN(c1ccc(-c3ccnc4c(-c5cccc(O)c5)c(-c5ccncc5)nn34)cc1)C2 [Example 25, 3-{7-[4-(8-Methyl-3,8-diaza-bicyclo[3.2.1]oct-3-yl)-phenyl]-2-pyridin-4-yl-pyrazolo[1,5-a]pyrimidin-3-yl}-phenol]	0.001	–
COc1cc(-c2c(-c3ccncc3)nn3c(-c4ccc(N5CC6CCC(C5)N6C)cc4)ccnc23)ccc1Cl [Example 26, 3-(4-Chloro-3-methoxy-phenyl)-7-[4-(8-methyl-3,8-diaza-bicyclo[3.2.1]oct-3-yl)-phenyl]-2-pyridin-4-yl-pyrazolo[1,5-a]pyrimidine]	–	0.01
CN1C2CCC1CN(c1ccc(-c3ccnc4c(-c5ccc(Cl)c(O)c5)c(-c5ccncc5)nn34)cc1)C2 [Example 27, 2-Chloro-5-{7-[4-(8-methyl-3,8-diaza-bicyclo[3.2.1]oct-3-yl)-phenyl]-2-pyridin-4-yl-pyrazolo[1,5-a]pyrimidin-3-yl}-phenol]	–	< 0.0003
COc1cccc(-c2c(-c3ccncc3)nn3c(-c4ccc(N5C[C@@H]6C[C@H]5CN6)cc4)ccnc23)c1 [Example 28, 7-[4-((1S,4S)-2,5-Diaza-bicyclo[2.2.1]hept-2-yl)-phenyl]-3-(3-methoxy-phenyl)-2-pyridin-4-yl-pyrazolo[1,5-a]pyrimidine]	0.016	–
Oc1cccc(-c2c(-c3ccncc3)nn3c(-c4ccc(N5C[C@@H]6C[C@H]5CN6)cc4)ccnc23)c1 [Example 29, 3-{7-[4-((1S,4S)-2,5-Diaza-bicyclo[2.2.1]hept-2-yl)-phenyl]-2-pyridin-4-yl-pyrazolo[1,5-a]pyrimidin-3-yl}-phenol]	0.0005	–
CN1C[C@@H]2C[C@H]1CN2c1ccc(-c2ccnc3c(-c4cccc(O)c4)c(-c4ccncc4)nn23)cc1 [Example 30, 3-{7-[4-((1S,4S)-5-Methyl-2,5-diaza-bicyclo[2.2.1]hept-2-yl)-phenyl]-2-pyridin-4-yl-pyrazolo[1,5-a]pyrimidin-3-yl}-phenol]	< 0.003	–
COc1cc(-c2c(-c3ccncc3)nn3c(-c4ccc(N5C[C@@H]6C[C@H]5CN6)cc4)ccnc23)ccc1Cl [Example 31, 7-(4-((1S,4S)-2,5-Diaza-bicyclo[2.2.1]heptan-2-yl)phenyl)-3-(4-chloro-3-methoxyphenyl)-2-(pyridin-4-yl)pyrazolo[1,5-a]pyrimidine]	0.0018	–
COc1cc(-c2c(-c3ccncc3)nn3c(-c4ccc(N5C[C@@H]6C[C@H]5CN6)cc4)ccnc23)ccc1F [Example 32, 7-(4-((1S,4S)-2,5-Diaza-bicyclo[2.2.1]heptan-2-yl)phenyl)-3-(4-fluoro-3-methoxyphenyl)-2-(pyridin-4-yl)pyrazolo[1,5-a]pyrimidine]	0.0087	–
Oc1cc(-c2c(-c3ccncc3)nn3c(-c4ccc(N5C[C@@H]6C[C@H]5CN6)cc4)ccnc23)ccc1F [Example 33, 5-(7-(4-((1S,4S)-2,5-Diazabicyclo[2.2.1]heptan-2-yl)phenyl)-2-(pyridin-4-yl)pyrazolo[1,5-a]pyrimidin-3-yl)-2-fluorophenol]	< 0.0003	–

Further lines, with some results ahead:

IC50 (read-out: Mean IC50) [µM]	Compound	IC50 (Mean IC50 (uM)) [µM]
0.0023	CN1C[C@@H]2C[C@H]1CN2c1ccc(-c2ccnc3c(-c4cccc5[nH]ncc45)c(-c4ccncc4)nn23)cn1 [Example 34, 3-(1H-Indazol-4-yl)-7-(6-((1S,4S)-5-methyl-2,5-diazabicyclo[2.2.1]heptan-2-yl)pyridin-3-yl)-2-(pyridin-4-yl)pyrazolo[1,5-a]pyrimidine]	–
0.0015	CN1C[C@@H]2C[C@H]1CN2c1ccc(-c2ccnc3c(-c4cccc5[nH]ncc45)c(-c4ccncc4)nn23)cc1 [Example 35, 3-(1H-indazol-4-yl)-7-(4-((1S,4S)-5-methyl-2,5-diazabicyclo[2.2.1]heptan-2-yl)phenyl)-2-(pyridin-4-yl)pyrazolo[1,5-a]pyrimidine]	–
0.0082	COc1cccc(-c2c(-c3ccncc3)nn3c(-c4ccc(N5C[C@@H]6C[C@H]5CN6C)cc4)ccnc23)c1 [Example 36, 3-(3-Methoxyphenyl)-7-(4-((1S,4S)-5-methyl-2,5-diazabicyclo[2.2.1]heptan-2-yl)phenyl)-2-(pyridin-4-yl)pyrazolo[1,5-a]pyrimidine]	–
0.021	COc1cc(-c2c(-c3ccncc3)nn3c(-c4ccc(N5C[C@@H]6C[C@H]5CN6C)cc4)ccnc23)ccc1F [Example 37, 3-(4-Fluoro-3-methoxyphenyl)-7-(4-((1S,4S)-5-methyl-2,5-diazabicyclo[2.2.1]heptan-2-yl)phenyl)-2-(pyridin-4-yl)pyrazolo[1,5-a]pyrimidine]	–
0.0005	CCN1C[C@@H]2C[C@H]1CN2c1ccc(-c2ccnc3c(-c4ccc(F)c(O)c4)c(-c4ccncc4)nn23)cc1 [Example 38, 5-(7-(4-((1S,4S)-5-Ethyl-2,5-diazabicyclo[2.2.1]heptan-2-yl)phenyl)-2-(pyridin-4-yl)pyrazolo[1,5-a]pyrimidin-3-yl)-2-fluorophenol]	–
0.0005	CC(=O)N1C[C@@H]2C[C@H]1CN2c1ccc(-c2ccnc3c(-c4ccc(F)c(O)c4)c(-c4ccncc4)nn23)cc1 [Example 39, 1-((1S,4S)-5-(4-(3-(4-Fluoro-3-hydroxyphenyl)-2-(pyridin-4-yl)pyrazolo[1,5-a]pyrimidin-7-yl)phenyl)-2,5-diazabicyclo[2.2.1]heptan-2-yl)ethanone]	–
0.0007	Cc1ccc(-c2c(-c3ccncc3)nn3c(-c4ccc(N5C[C@@H]6C[C@H]5CN6C)nc4)ccnc23)c2cn[nH]c12 [Example 40, 3-(7-Methyl-1H-indazol-4-yl)-7-(6-((1S,4S)-5-methyl-2,5-diazabicyclo[2.2.1]heptan-2-yl)pyridin-3-yl)-2-(pyridin-4-yl)pyrazolo[1,5-a]pyrimidine]	–
< 0.0003	CN1C[C@@H]2C[C@H]1CN2c1ccc(-c2ccnc3c(-c4ccc(Cl)c5[nH]ncc45)c(-c4ccncc4)nn23)cn1 [Example 41, 3-(7-Chloro-1H-indazol-4-yl)-7-(6-((1S,4S)-5-methyl-2,5-diazabicyclo[2.2.1]heptan-2-yl)pyridin-3-yl)-2-(pyridin-4-yl)pyrazolo[1,5-a]pyrimidine]	–
0.0004	CN1C[C@@H]2C[C@H]1CN2c1ccc(-c2ccnc3c(-c4ccc(F)c5[nH]ncc45)c(-c4ccncc4)nn23)cn1 [Example 42, 3-(7-Fluoro-1H-indazol-4-yl)-7-(6-((1S,4S)-5-methyl-2,5-diazabicyclo[2.2.1]heptan-2-yl)pyridin-3-yl)-2-(pyridin-4-yl)pyrazolo[1,5-a]pyrimidine]	–
0.134	CN1C[C@@H]2C[C@H]1CN2c1ccc(-c2ccnc3c(-c4cccc(C(N)=O)c4)c(-c4ccncc4)nn23)cn1 [Example 43, 3-(7-(6-((1S,4S)-5-Methyl-2,5-diazabicyclo[2.2.1]heptan-2-yl)pyridin-3-yl)-2-(pyridin-4-yl)pyrazolo[1,5-a]pyrimidin-3-yl)benzamide]	–
0.0006	Cc1cc(N2C[C@@H]3C[C@H]2CN3)ccc1-c1ccnc2c(-c3cccc4[nH]ncc34)c(-c3ccncc3)nn12 [Example 44, 7-(4-((1S,4S)-2,5-Diazabicyclo[2.2.1]heptan-2-yl)-2-methylphenyl)-3-(1H-indazol-4-yl)-2-(pyridin-4-yl)pyrazolo[1,5-a]pyrimidine]	–
< 0.0003	Cc1cc(N2C[C@@H]3C[C@H]2CN3C)ccc1-c1ccnc2c(-c3cccc4[nH]ncc34)c(-c3ccncc3)nn12 [Example 45, 3-(1H-Indazol-4-yl)-7-(2-methyl-4-((1S,4S)-5-methyl-2,5-diazabicyclo[2.2.1]heptan-2-yl)phenyl)-2-(pyridin-4-yl)pyrazolo[1,5-a]pyrimidine]	–
0.0032	Fc1ccc(-c2ccnc3c(-c4cccc5[nH]ncc45)c(-c4ccncc4)nn23)c(N2C[C@@H]3C[C@H]2CN3)c1 [Example 46, 7-(2-((1S,4S)-2,5-Diazabicyclo[2.2.1]heptan-2-yl)-4-fluorophenyl)-3-(1H-indazol-4-yl)-2-(pyridin-4-yl)pyrazolo[1,5-a]pyrimidine]	–
0.0008	CN1C[C@@H]2C[C@H]1CN2c1cc(F)ccc1-c1ccnc2c(-c3cccc4[nH]ncc34)c(-c3ccncc3)nn12 [Example 47, 7-(4-Fluoro-2-((1S,4S)-5-methyl-2,5-diazabicyclo[2.2.1]heptan-2-yl)phenyl)-3-(1H-indazol-4-yl)-2-(pyridin-4-yl)pyrazolo[1,5-a]pyrimidine]	–
